According to EP0205308B1, “Scytophycins” (Moore, Richard Elliott, priority 1985, dated 1986):
Marks after values point to notes of the source that are not given here. Starred links: 1 amine or outer side, 2 acyl side, 3 side chain; linkers in the order of their positions; H or OH if unused. Non-standard residues stand in square brackets, D forms with d. Residues, ends and D or L forms follow the SMILES beside them. X1 = CCC(N[*:1])C(C)C(=O)O[C@H](C(=O)[*:2])[C@@H](C)CC; X2 = C[C@H](N[*:1])C(=O)C(C)(C)C(=O)[*:2]; NMeY = CN[C@@H](Cc1ccc(O)cc1)C(=O)O; NMeI = CC[C@H](C)[C@H](NC)C(=O)O; NMeV = CN[C@H](C(=O)O)C(C)C

Experiments:
[1] = system: Rhizoctonia solani X767; test: In vitro agar-diffusion test; format: cell-based; design: key: - = not active
Experimental: (§1) The activity of scytophycin compounds against pathogenic fungi in standard in vitro agar-diffusion tests, using ¼"(6mm) discs holding ~30 µL of test solution, is illustrated in Tables 6-12.

[2] = system: Sclerotina homoeocarpa X768; test: In vitro agar-diffusion test; format: cell-based; design: key: - = not active
Experimental: as §1

[3] = system: Pythium ultimum X751; test: In vitro agar-diffusion test; format: cell-based; details: for Zone of Inhibition Size: Table 6, level 1 mg/mL
Experimental: as §1

[4] = system: B16 Melanoma; test: Survival of mice with intraperitoneally implanted tumor; format: in vivo, BDF1 Mice; details: for activity against intraperitoneally implanted tumor: B16 melanoma, result in words
Experimental: (§2) Female hybrid BDF1 (DBA/2 x C57BL/6) mice were used for the evaluation of the scytophycins against the three tumors. The mice were first inoculated intraperitoneally with 10⁶ cells of P388 ascites leukemia (P388), 2 to 6 x 10⁵ cells of Lewis lung carcinoma (LLC) homogenate, or 0.3 mL of 20% homogenate of B16 tumor (B16) masses. Drug treatment was started the next day (day 1) and continued daily for 6-9 days.

[5] = system: Lewis Lung Carcinoma; test: as above; format: in vivo, BDF1 Mice; details: for activity against intraperitoneally implanted tumor: Lewis lung carcinoma, result in words; for % T/C / Mean Survival Time, Days Treated: LLC, 9 days of treatment
Experimental: as §2

[6] = system: P388 Lymphocytic Leukemia; test: as above; format: in vivo, BDF1 Mice; details: for activity against intraperitoneally implanted tumor: P388 lymphocytic leukemia, result in words
Experimental: as §2

[7] = system: Saccharomyces pastorianus X52; test: In vitro agar-diffusion test; format: cell-based; design: key: T = trace
Experimental: as §1

[8] = system: Neurospora crassa X846; test: In vitro agar-diffusion test; format: cell-based
Experimental: as §1

[9] = system: Candida albicans X657; test: In vitro agar-diffusion test; format: cell-based; details: for inhibition of fungal pathogen: Candida albicans, general statement in words
Experimental: as §1

[10] = system: KB human epidermoid carcinoma; test: Cytotoxicity, minimum toxic dose (method of Furusawa and Cutting); format: cell-based; details: KB human epidermoid carcinoma cell line
Experimental: (§3) The scytophycin compounds are potent cytotoxins. For example, the minimum toxic doses of scytophycins A and B against KB human epidermoid carcinoma and NIH/3T3 mouse fibroblast cell lines were determined to be 1 ng/mL and 0.65 ng/mL, respectively, using methods described by E. Furusawa and W. Cutting in Ann. New York Acad. Sci. 173, 669-679 (1970).

[11] = system: NIH/3T3 mouse fibroblast; test: as above; format: cell-based; details: NIH/3T3 mouse fibroblast cell line
Experimental: as §3

[12] = format: in vivo; details: mice, administered IP
Experimental: At sublethal doses, the scytophycin compounds are antineoplastic agents. The minimum lethal dose of scytophycin B in mice, when administered IP, is about 650 µg/kg.

[13] = P388, 1 µg/Mouse, 8 days of treatment
[14] = B16, 2 µg/Mouse, 8 days of treatment
[15] = B16, 4 µg/Mouse, 8 days of treatment
[16] = B16, 8 µg/Mouse, 8 days of treatment
[17] = P388, 0.5 µg/Mouse, 8 days of treatment
[18] = P388, 0.65 µg/Mouse, 8 days of treatment
[19] = P388, 2 µg/Mouse, 8 days of treatment
[20] = P388, 3.25 µg/Mouse, 6 days of treatment
[21] = P388, 4 µg/Mouse, 8 days of treatment

**Q.** Which results are given for CCC1NC(=O)[C@H](C)NC(=O)C(C)(C)C(=O)[C@H](C)NC(=O)[C@H](Cc2ccc(OC)cc2)N(C)C(=O)[C@H](C(C)C)N(C)C(=O)CNC(=O)[C@H]([C@@H](C)CC)N(C)C(=O)CNC(=O)[C@H]([C@@H](C)CC)OC(=O)C1C (some centres unmarked) [Majusculamide C, reference compound] (cyclo(A[X1]G[NMeI]G[NMeV][NMeY](Me)[X2]))?
**A.** Size of Zone of Inhibition (mm) ([1]; Table 10, 0.01 mg/mL): -; Size of Zone of Inhibition (mm) ([1]; Table 10, 0.1 mg/mL): -; Size of Zone of Inhibition (mm) ([1]; Table 10, 1.0 mg/mL): 20^a mm; Size of Zone of Inhibition (mm) ([2]; Table 10, 0.01 mg/mL): -; Size of Zone of Inhibition (mm) ([2]; Table 10, 0.1 mg/mL): -; Size of Zone of Inhibition (mm) ([2]; Table 10, 1.0 mg/mL): 17 mm; Size of Zone of Inhibition (mm) ([3]; Table 10, 0.01 mg/mL): 10^a mm; Size of Zone of Inhibition (mm) ([3]; Table 10, 0.1 mg/mL): 18 mm; Size of Zone of Inhibition (mm) ([3]; Table 10, 1.0 mg/mL): >30 mm

**Q.** With Scytophycin A as the compound, how does the “activity against intraperitoneally implanted tumor” value (“activity” below) [4] read?
**A.** did not exhibit activity

**Q.** What about the “activity” value [5] of the same compound?
**A.** moderate activity

**Q.** And the “% T/C” value [6, 13]?
**A.** 125%

**Q.** What about the “Mean Survival Time, Days Treated” value [6, 13] of the same compound?
**A.** 10.0 days

**Q.** And the “activity” value [6]?
**A.** moderate activity

**Q.** What about the “Size of Zone of Inhibition (mm)” value ([1]; Table 10, 0.01 mg/mL) of the same compound?
**A.** 13 mm

**Q.** What about the “Size of Zone of Inhibition (mm)” value ([1]; Table 10, 0.1 mg/mL) of the same compound?
**A.** 23 mm

**Q.** And the “Size of Zone of Inhibition (mm)” value ([1]; Table 10, 1.0 mg/mL)?
**A.** 30 mm

**Q.** And the “Size of Zone of Inhibition (mm)” value ([2]; Table 10, 0.01 mg/mL)?
**A.** 20 mm

**Q.** And the “Size of Zone of Inhibition (mm)” value ([2]; Table 10, 0.1 mg/mL)?
**A.** 30 mm

**Q.** And the “Size of Zone of Inhibition (mm)” value ([2]; Table 10, 1.0 mg/mL)?
**A.** >30 mm

**Q.** And the “Size of Zone of Inhibition (mm)” value ([7]; Table 7, 0.01 mg/mL)?
**A.** T^a

**Q.** What about the “Size of Zone of Inhibition (mm)” value ([7]; Table 7, 0.1 mg/mL) of the same compound?
**A.** 17 mm

**Q.** What about the “Size of Zone of Inhibition (mm)” value ([7]; Table 7, 1 mg/mL) of the same compound?
**A.** 24 mm

**Q.** And the “Size of Zone of Inhibition (mm)” value ([8]; Table 7, 0.01 mg/mL)?
**A.** 18 mm

**Q.** And the “Size of Zone of Inhibition (mm)” value ([8]; Table 7, 0.1 mg/mL)?
**A.** 25 mm

**Q.** And the “Size of Zone of Inhibition (mm)” value ([8]; Table 7, 1 mg/mL)?
**A.** 30 mm

**Q.** And the “inhibition of fungal pathogen” value [9]?
**A.** inhibit

**Q.** And the “Size of Zone of Inhibition (mm)” value ([9]; Table 7, 0.01 mg/mL)?
**A.** 12 mm

**Q.** What about the “Size of Zone of Inhibition (mm)” value ([9]; Table 7, 0.1 mg/mL) of the same compound?
**A.** 19 mm

**Q.** What about the “Size of Zone of Inhibition (mm)” value ([9]; Table 7, 1 mg/mL) of the same compound?
**A.** 23 mm

**Q.** And the “Zone of Inhibition Size” value [3]?
**A.** 37 mm

**Q.** What about the “Size of Zone of Inhibition (mm)” value ([3]; Table 10, 0.01 mg/mL) of the same compound?
**A.** 20 mm

**Q.** And the “Size of Zone of Inhibition (mm)” value ([3]; Table 10, 0.1 mg/mL)?
**A.** >30 mm

**Q.** And the “Size of Zone of Inhibition (mm)” value ([3]; Table 10, 1.0 mg/mL)?
**A.** >30 mm

**Q.** What about the minimum toxic dose [10] of the same compound?
**A.** 1 ng/mL

**Q.** What about the minimum toxic dose [11] of the same compound?
**A.** 1 ng/mL

**Q.** Which results are given for Scytophycin B?
**A.** % T/C [4, 14]: 102%; Mean Survival Time, Days Treated [4, 14]: 19.4 days; % T/C [4, 15]: 104%; Mean Survival Time, Days Treated [4, 15]: 19.8 days; % T/C [4, 16]: 63%; Mean Survival Time, Days Treated [4, 16]: 12.0 days; toxicity remark in % T/C column [4, 16]: toxic; activity against intraperitoneally implanted tumor [4]: did not exhibit activity; % T/C ([5]; 0.5 µg/Mouse): 106%; Mean Survival Time, Days Treated ([5]; 0.5 µg/Mouse): 10.4 days; % T/C ([5]; 1 µg/Mouse): 114%; Mean Survival Time, Days Treated ([5]; 1 µg/Mouse): 11.2 days; % T/C ([5]; 2 µg/Mouse): 124%; Mean Survival Time, Days Treated ([5]; 2 µg/Mouse): 12.2 days; % T/C ([5]; 4 µg/Mouse): 129%; Mean Survival Time, Days Treated ([5]; 4 µg/Mouse): 12.6 days; activity against intraperitoneally implanted tumor [5]: moderate activity; % T/C [6, 17]: 100%; Mean Survival Time, Days Treated [6, 17]: 9.4 days; % T/C [6, 18]: 125%; Mean Survival Time, Days Treated [6, 18]: 10.0 days; % T/C [6, 13]: 113%; Mean Survival Time, Days Treated [6, 13]: 10.6 days; % T/C [6, 19]: 130%; Mean Survival Time, Days Treated [6, 19]: 12.2 days; % T/C [6, 20]: 136%; Mean Survival Time, Days Treated [6, 20]: 11.4 days; % T/C [6, 21]: 128%; Mean Survival Time, Days Treated [6, 21]: 12.0 days; activity against intraperitoneally implanted tumor [6]: moderate activity; Size of Zone of Inhibition (mm) ([1]; Table 10, 0.01 mg/mL): 30 mm; Size of Zone of Inhibition (mm) ([1]; Table 10, 0.1 mg/mL): >30 mm; Size of Zone of Inhibition (mm) ([1]; Table 10, 1.0 mg/mL): >30 mm; Size of Zone of Inhibition (mm) ([1]; Table 11, 0.33 mg/mL): 40 mm; Size of Zone of Inhibition (mm) ([1]; Table 11, 1.0 mg/mL): 46^a mm; Size of Zone of Inhibition (mm) ([2]; Table 10, 0.01 mg/mL): >30 mm; Size of Zone of Inhibition (mm) ([2]; Table 10, 0.1 mg/mL): >30 mm; Size of Zone of Inhibition (mm) ([2]; Table 10, 1.0 mg/mL): >30 mm; Size of Zone of Inhibition (mm) ([2]; Table 11, 0.33 mg/mL): 40 mm; Size of Zone of Inhibition (mm) ([2]; Table 11, 1.0 mg/mL): 44 mm; Size of Zone of Inhibition (mm) ([7]; Table 7, 0.01 mg/mL): 20 mm; Size of Zone of Inhibition (mm) ([7]; Table 7, 0.1 mg/mL): 20 mm; Size of Zone of Inhibition (mm) ([7]; Table 7, 1 mg/mL): 27 mm; Size of Zone of Inhibition (mm) ([7]; Table 8, 0.33 mg/mL): 24 mm; Size of Zone of Inhibition (mm) ([7]; Table 8, 1 mg/mL): 24 mm; Size of Zone of Inhibition (mm) ([8]; Table 7, 0.01 mg/mL): 30 mm; Size of Zone of Inhibition (mm) ([8]; Table 7, 0.1 mg/mL): 27 mm; Size of Zone of Inhibition (mm) ([8]; Table 7, 1 mg/mL): 32 mm; Size of Zone of Inhibition (mm) ([8]; Table 8, 0.33 mg/mL): 36 mm; Size of Zone of Inhibition (mm) ([8]; Table 8, 1 mg/mL): 36 mm; inhibition of fungal pathogen [9]: inhibit; Size of Zone of Inhibition (mm) ([9]; Table 7, 0.01 mg/mL): 21 mm; Size of Zone of Inhibition (mm) ([9]; Table 7, 0.1 mg/mL): 22 mm; Size of Zone of Inhibition (mm) ([9]; Table 7, 1 mg/mL): 26 mm; Size of Zone of Inhibition (mm) ([9]; Table 8, 0.33 mg/mL): 25 mm; Size of Zone of Inhibition (mm) ([9]; Table 8, 1 mg/mL): 31 mm; Zone of Inhibition Size [3]: 37 mm; Size of Zone of Inhibition (mm) ([3]; Table 10, 0.01 mg/mL): 30 mm; Size of Zone of Inhibition (mm) ([3]; Table 10, 0.1 mg/mL): 30^a mm; Size of Zone of Inhibition (mm) ([3]; Table 10, 1.0 mg/mL): 30^a mm; Size of Zone of Inhibition (mm) ([3]; Table 11, 0.33 mg/mL): 30 mm; Size of Zone of Inhibition (mm) ([3]; Table 11, 1.0 mg/mL): 30 mm; minimum toxic dose [10]: 0.65 ng/mL; minimum toxic dose [11]: 0.65 ng/mL; minimum lethal dose [12]: about 650 µg/kg
